From US20090036474A1, “Quinazoline derivatives for use against cancer” (priority 2004, published 2009)

What was measured:
[1] = test system: human glioblastoma lines U343 and U87; settings: U343 and U87 injected into the brains of nude mice; Cancer Research 2000; cited from earlier work
PDGF receptor kinase = settings: Nature Reviews 2002; Cancer Research 1996; cited from earlier work
[2] = test system: dermatofibrosarcoma protruberans cell cultures; settings: Cancer Research 2001; cited from earlier work
KDR tyrosine kinase = biological target: T1, KDR tyrosine kinase (Homo sapiens, UniProt P35968); assay: In vitro enzyme assay (ELISA), Test (a), KDR; type: biochemical; settings: ATP 8 μM, read-out: IC50 versus KDR tyrosine kinase
T1 construct: a DNA fragment encoding most of the cytoplasmic domain, commencing with methionine 806 and including the termination codon; made in house; host or cells: Sf9 insect cells (recombinant baculovirus)
T1 sequence (P35968 786-1356 limits assumed): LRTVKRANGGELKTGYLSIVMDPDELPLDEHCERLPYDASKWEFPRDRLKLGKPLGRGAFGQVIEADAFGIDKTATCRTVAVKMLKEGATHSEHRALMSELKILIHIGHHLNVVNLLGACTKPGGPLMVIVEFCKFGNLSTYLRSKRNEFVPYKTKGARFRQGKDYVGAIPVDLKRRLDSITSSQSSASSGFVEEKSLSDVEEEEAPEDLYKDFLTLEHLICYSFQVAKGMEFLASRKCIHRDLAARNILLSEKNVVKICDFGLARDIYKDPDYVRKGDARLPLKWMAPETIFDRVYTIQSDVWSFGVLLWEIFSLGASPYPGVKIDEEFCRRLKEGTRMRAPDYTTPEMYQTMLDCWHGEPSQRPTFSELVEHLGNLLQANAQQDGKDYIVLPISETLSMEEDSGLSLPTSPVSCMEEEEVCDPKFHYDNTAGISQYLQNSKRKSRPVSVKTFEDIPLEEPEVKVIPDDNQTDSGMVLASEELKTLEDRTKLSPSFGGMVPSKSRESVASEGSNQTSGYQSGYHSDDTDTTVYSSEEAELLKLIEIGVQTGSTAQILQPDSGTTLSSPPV
Method: (§1) The ability of test compounds to inhibit the phosphorylation of a tyrosine containing polypeptide substrate by the tyrosine kinase enzymes PDGFRα, PDGFRβ and KDR was assessed using conventional ELISA assays. DNA encoding the PDGFRα, PDGFRβ or KDR receptor cytoplasmic domains may be obtained by total gene synthesis (International Biotechnology Lab., 1987, 5(3), 19-25) or by cloning. The DNA fragments may be expressed in a suitable expression system to obtain polypeptide with tyrosine kinase activity. For example, PDGFRα, PDGFRβ and KDR receptor cytoplasmic domains, obtained by expression of recombinant protein in insect cells, can be shown to display intrinsic tyrosine kinase activity. In the case of the VEGF receptor KDR (Genbank Accession No. L04947), a DNA fragment encoding most of the cytoplasmic domain, commencing with methionine 806 and including the termination codon may be cloned into a baculovirus transplacement vector [for example pAcYM1 (see The Baculovirus Expression System: A Laboratory Guide, L. A. King and R. D. Possee, Chapman and Hall, 1992) or pAc360 or pBlueBacHis (available from Invitrogen Corporation)]. This recombinant construct may be co-transfected into insect cells [for example Spodoptera frugiperda 21(Sf21) or Spodoptera frugiperda 9(Sf9)] with viral DNA (for example Pharmingen BaculoGold) to prepare recombinant baculovirus. Details of the methods for the assembly of recombinant DNA molecules and the preparation and use of recombinant baculovirus can be found in standard texts, for example Sambrook et al., 1989, Molecular cloning—A Laboratory Manual, 2nd edition, Cold Spring Harbour Laboratory Press and O'Reilly et al., 1992, Baculovirus Expression Vectors—A Laboratory Manual, W. H. Freeman and Co, New York).
For expression, Sf9 cells were infected with plaque-pure KDR recombinant virus and harvested 48 hours later. […]

phospho-Tyr751 PDGFRβ = biological target: T2, phospho-Tyr751 PDGFRβ (Homo sapiens, UniProt P09619); assay: In vitro phospho-Tyr751 PDGFRβ ELISA assay in MG63 osteosarcoma cells, Test (b); type: cell-based; settings: MG63 cells stimulated with PDGFBB, read-out: IC50 versus phospho-Tyr751 PDGFRβ
T2 construct: phosphorylation of PDGFR expressed on MG63 osteosarcoma cells; endogenous in cells; host or cells: MG63 osteosarcoma cells
T2 sequence (P09619 33-1106): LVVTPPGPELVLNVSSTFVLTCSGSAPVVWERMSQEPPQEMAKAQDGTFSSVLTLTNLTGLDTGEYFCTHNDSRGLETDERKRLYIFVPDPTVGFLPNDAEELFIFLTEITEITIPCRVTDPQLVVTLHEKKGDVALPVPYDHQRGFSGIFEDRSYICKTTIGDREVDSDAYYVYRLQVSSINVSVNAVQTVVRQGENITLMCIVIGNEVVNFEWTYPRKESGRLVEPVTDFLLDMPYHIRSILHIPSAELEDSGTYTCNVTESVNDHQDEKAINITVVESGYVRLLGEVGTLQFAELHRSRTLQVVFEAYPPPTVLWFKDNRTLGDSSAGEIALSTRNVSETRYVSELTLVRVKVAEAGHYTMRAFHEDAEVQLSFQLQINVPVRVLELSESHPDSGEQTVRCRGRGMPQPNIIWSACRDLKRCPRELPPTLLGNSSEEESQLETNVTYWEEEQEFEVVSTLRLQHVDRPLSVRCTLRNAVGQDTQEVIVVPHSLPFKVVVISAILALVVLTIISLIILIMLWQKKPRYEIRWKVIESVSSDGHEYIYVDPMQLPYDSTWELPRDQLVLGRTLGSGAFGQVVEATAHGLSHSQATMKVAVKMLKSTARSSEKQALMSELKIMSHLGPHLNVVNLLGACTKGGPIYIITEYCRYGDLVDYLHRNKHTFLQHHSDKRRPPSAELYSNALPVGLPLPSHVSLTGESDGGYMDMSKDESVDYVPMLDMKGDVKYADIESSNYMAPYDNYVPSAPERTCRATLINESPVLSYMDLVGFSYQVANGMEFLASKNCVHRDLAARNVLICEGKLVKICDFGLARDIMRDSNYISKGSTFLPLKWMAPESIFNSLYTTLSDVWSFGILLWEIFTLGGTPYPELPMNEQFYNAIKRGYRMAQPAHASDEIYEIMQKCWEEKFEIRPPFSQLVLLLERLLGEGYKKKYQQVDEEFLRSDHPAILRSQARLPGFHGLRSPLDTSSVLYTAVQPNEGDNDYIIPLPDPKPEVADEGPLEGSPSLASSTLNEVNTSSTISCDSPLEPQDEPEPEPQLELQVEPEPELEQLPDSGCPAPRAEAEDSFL
Method: This assay uses a conventional ELISA method to determine the ability of test compounds to inhibit phosphorylation of tyrosine in PDGFRβ.
An MG63 osteosarcoma cell line [American Type Culture Collection (ATCC) CCL 1427] was routinely maintained at 37° C. with 7.5% CO2 in Dulbecco's modified Eagle's growth medium (DMEM; Sigma-Aldrich; Catalogue No. D6546) containing 10% foetal calf serum (FCS; Sigma-Aldrich; Catalogue No. F7524) and 2 mM L-glutamine (Invitrogen Ltd., Paisley, UK; Catalogue No. 25030-024).
For the assay, the cells were detached from the culture flask using a trypsin/ethylenediaminetetraacetic acid (EDTA) mixture (Invitrogen Ltd.; Catalogue No. 15400-054) and resuspended in test media comprising DMEM without phenol red (Sigma-1-Aldrich; Catalogue No. D5921) containing 1% charcoal-stripped-foetal calf serum (FCS) (Sigma-Aldrich; Catalogue No. F7524, stripped by incubation with dextran-coated activated charcoal at 55° C. for 30 minutes with continuous stirring followed by removal of the charcoal by centrifugation and filter sterilisation) and 2 mM L-glutamine (Invitrogen Ltd., Catalogue No. 25030-024) to give 6×10^4 cells per ml. […]

PDGFRβ tyrosine kinase = biological target: T3, PDGFRβ tyrosine kinase (Homo sapiens, UniProt P09619); assay: In vitro enzyme assay (ELISA), Test (a), PDGFRβ; type: biochemical; settings: ATP 2.8 μM, read-out: IC50 versus PDGFRβ tyrosine kinase
T3 construct: PDGFRα, PDGFRβ and KDR receptor cytoplasmic domains, obtained by expression of recombinant protein in insect cells; purchased Upstate Biotechnology Inc. 14-463; host or cells: Sf9 insect cells
T3 sequence (P09619 554-1106 limits assumed): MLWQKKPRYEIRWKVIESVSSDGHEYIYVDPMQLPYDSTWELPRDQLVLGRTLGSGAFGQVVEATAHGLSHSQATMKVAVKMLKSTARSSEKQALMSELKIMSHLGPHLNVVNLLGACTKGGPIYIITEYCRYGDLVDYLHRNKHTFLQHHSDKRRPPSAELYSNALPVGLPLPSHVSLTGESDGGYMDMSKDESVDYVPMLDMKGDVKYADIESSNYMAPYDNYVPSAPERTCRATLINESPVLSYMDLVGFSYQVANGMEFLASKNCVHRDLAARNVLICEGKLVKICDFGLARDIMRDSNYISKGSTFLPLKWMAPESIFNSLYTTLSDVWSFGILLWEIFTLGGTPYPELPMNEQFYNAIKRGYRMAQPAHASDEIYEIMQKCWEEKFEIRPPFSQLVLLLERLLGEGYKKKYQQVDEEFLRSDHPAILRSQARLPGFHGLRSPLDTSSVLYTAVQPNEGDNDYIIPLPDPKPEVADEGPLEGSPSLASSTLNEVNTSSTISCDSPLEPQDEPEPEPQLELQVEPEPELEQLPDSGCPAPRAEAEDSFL
Method: as §1, with “Details of the methods for the assembly of recombinant DNA molecules and the preparation and use of recombinant baculovirus can be found in standard texts, for example Sambrook et al., 1989, Molecular cloning—A Laboratory Manual, 2nd edition, Cold Spring Harbour Laboratory Press and O'Reilly et al., 1992, Baculovirus Expression Vectors—A Laboratory Manual, W. H. Freeman and Co, New York).” left out

PDGFRα tyrosine kinase = biological target: T4, PDGFRα tyrosine kinase (Homo sapiens, UniProt P16234); assay: In vitro enzyme assay (ELISA), Test (a), PDGFRα; type: biochemical; settings: ATP 14 μM, read-out: IC50 versus PDGFRα tyrosine kinase
T4 construct: PDGFRα, PDGFRβ and KDR receptor cytoplasmic domains, obtained by expression of recombinant protein in insect cells; purchased Upstate Biotechnology Inc. 14-467; host or cells: Sf9 insect cells
T4 sequence (P16234 550-1089 limits assumed): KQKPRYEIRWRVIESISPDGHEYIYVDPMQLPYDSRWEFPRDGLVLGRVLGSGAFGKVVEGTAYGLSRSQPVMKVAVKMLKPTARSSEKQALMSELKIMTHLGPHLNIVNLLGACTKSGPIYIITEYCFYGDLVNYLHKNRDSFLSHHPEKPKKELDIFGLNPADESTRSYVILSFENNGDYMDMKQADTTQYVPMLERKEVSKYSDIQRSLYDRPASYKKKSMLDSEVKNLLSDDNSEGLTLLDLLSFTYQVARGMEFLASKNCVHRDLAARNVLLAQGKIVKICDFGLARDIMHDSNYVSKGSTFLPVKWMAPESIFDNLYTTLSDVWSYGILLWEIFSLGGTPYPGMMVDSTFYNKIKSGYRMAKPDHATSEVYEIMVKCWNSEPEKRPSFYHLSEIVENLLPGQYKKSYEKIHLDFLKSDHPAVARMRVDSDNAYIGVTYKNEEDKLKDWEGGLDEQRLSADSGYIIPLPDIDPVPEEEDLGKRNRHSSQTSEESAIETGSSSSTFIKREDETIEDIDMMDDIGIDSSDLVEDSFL
Method: as §1, with “Details of the methods for the assembly of recombinant DNA molecules and the preparation and use of recombinant baculovirus can be found in standard texts, for example Sambrook et al., 1989, Molecular cloning—A Laboratory Manual, 2nd edition, Cold Spring Harbour Laboratory Press and O'Reilly et al., 1992, Baculovirus Expression Vectors—A Laboratory Manual, W. H. Freeman and Co, New York).” left out

Compound | growth of glioblastoma tumours [1] | inhibition of PDGF receptor kinase activity (PDGF receptor kinase) | in vivo growth of dermatofibrosarcoma protruberans cell cultures [2] | IC50 (KDR tyrosine kinase) | IC50 (phospho-Tyr751 PDGFRβ) | IC50 (PDGFRβ tyrosine kinase) | IC50 (PDGFRα tyrosine kinase)
Cc1ccc(NC(=O)c2ccc(CN3CCN(C)CC3)cc2)cc1Nc1nccc(-c2cccnc2)n1 [imatinib] | inhibits the growth | inhibit PDGF receptor kinase activity | inhibits the in vivo growth | – | – | – | –
COc1cc2ncnc(Oc3cnn(CC(=O)Nc4ccc5c(c4)NCC5)c3)c2cc1OC [Example 40, N-(6-indolinyl)-2-[4-(6,7-dimethoxyquinazolin-4-yloxy)pyrazol-1-yl]acetamide] | – | – | – | ~2 nM | ~1 nM | – | –
COc1cc2ncnc(Oc3cnn(CC(=O)Nc4ccc5c(c4)OCO5)c3)c2cc1OC [Example 1, N-(3,4-methylenedioxyphenyl)-2-[4-(6,7-dimethoxyquinazolin-4-yloxy)pyrazol-1-yl]acetamide] | – | – | – | ~30 nM | – | ~0.5 nM | ~7 nM
